# Patent publication US20080176263A1, “Materials and Methods for Efficient and Accurate Detection of Analytes” (University of Florida Research Foundation, Inc., priority 2006, published 2008)
# Several values for one entry are separate records, joined by “and”; a condition that tells them apart may be missing. Equal entries are not always repeated. Numbered stars: 1 amine (or outer) side, 2 acyl side, 3 side chain; on linkers, the order of the positions; unused ones are H or OH. Square brackets hold non-standard residues; d marks the D form. * marks the point of attachment. Dab(5-FAM) = O=C(NCC[C@H](N[*:1])C(=O)[*:2])c1ccc2c(c1)C(=O)OC21c2ccc(O)cc2Oc2cc(O)ccc21; EDANS = O=S(=O)(O)c1cccc2c(NCCN*)cccc12; DABCYL = DABCYL quencher; GABA = NCCCC(=O)O
# Assays:
# pronase = conditions: 23° C., 30 min, 100 tM substrate
# Description: The biotinylated fluoreceinated peptide #15 was reconstituted to a concentration of 10 mM in DMSO to serve as a stock solution. […] The 10 mM stock was further diluted to a 1 mM working stock. The final in-reaction concentration of substrate was 100 tM, which was chosen based on visual/fluorescent appearance of the diluted sample.
# Three reactions were run, a negative control which contained no protease, a tube which contained 10 tg/mL, and a tube that contained 100 tg/mL.
# All three tubes were shaken at room temperature (23° C.) for 30 min, then 30 μL of 500 mM EDTA was added to quench the metalloproteases. Then the reactions were immediately added to 10 kDa cut-off centrifuge filters to physically remove all proteases. This step required two separate filters per sample as the protein content was high enough to “clog” the filter after about half of the volume as filtered. The unfiltered volume was removed from the “clogged” filter and placed into a fresh filter.
# Six handee spin columns were prepared in advance by loading 200 tL of the streptavidin agarose suspension (approximately 1:1 bead:buffer) and then centrifuging to remove the buffer. Upon completion of the protease removal step, the filtered volume was placed in a handee spin column loaded with ˜100 tL of a high-capacity streptavidin agarose and the volumes were well mixed by pipetting action. […]
# substrate TNO211 [1] = assay: Study #1: time-to-detection of protease activity, cleavage of substrate TNO211 by fluorescence; format: biochemical; conditions: protease concentrations ≦100 ng/ml
# Description: 1. Prepare a suitable standard curve diluted in enzyme buffer. Typically, a maximum of 50 ng/ml final protease concentration in the assay is used. Keep on ice until use.
# 2. Prepare the substrate solution by diluting the Stock Reconstituted Substrate (in DMSO) to 5.56 uM in the desired Assay Buffer (EDTA-free or EDTA-containing) to produce 90 ul of total EDTA-free or EDTA-containing Assay Buffer per well.
# 3. Pipette 90 ul substrate solution into each well to be assayed.
# 4. Take an initial fluorescence reading. To minimize interference due to the fluorescence of endogenous proteins in the samples, we routinely use excitation/emission wavelengths of 355/535 nm, respectively.
# 5. Pipette 10 ul standards, samples, or Enzyme Buffer (BLANK) into each well of the 96-well fluorescence assay plate.
# 6. Measure the change in fluorescence continuously until the standard range of interest is sufficiently resolved. Protect from light at RT or 37° C. between measurements.
# 7. Determine the best-fit curve relating the Change in Fluorescence (AF) vs.
# [Protease]. […]
# One hundred, 10, 1, and 0.1 ng of pronase, MMP-2, MMP-9, and clostridial collagenase were assayed in a total reaction volume of 100 ul for cleavage of substrate TNO211 as detected by fluorescence. The reactions were monitored for approximately one hour after the addition of the proteases.
# substrate TNO211 [2] = assay: Study #3: protease detection sensitivity, visual detection under UV; format: biochemical; conditions: within 10 minutes; from 17% and 28% of pronase activity
# Description: To investigate the visual detection limits of pronase, standard curves (1000-0 ng) of the protease were reacted in 50, 100, and 200 uM substrate diluted in the assay buffer. Digital photographs were taken under white light and UV. These observations were compared to those obtained quantitatively using the fluorescence plate reader. The observed detection limits for pronase were used to calculate theoretical detection limits for MMP-2 and MMP-9 (17% and 28% as active as pronase, respectively).
# MMP-2 = molecular target: T1, MMP-2 (Homo sapiens, UniProt P08253); conditions: at 37° C., pH 7.64; cited from earlier work
# T1 sequence (P08253 110-660): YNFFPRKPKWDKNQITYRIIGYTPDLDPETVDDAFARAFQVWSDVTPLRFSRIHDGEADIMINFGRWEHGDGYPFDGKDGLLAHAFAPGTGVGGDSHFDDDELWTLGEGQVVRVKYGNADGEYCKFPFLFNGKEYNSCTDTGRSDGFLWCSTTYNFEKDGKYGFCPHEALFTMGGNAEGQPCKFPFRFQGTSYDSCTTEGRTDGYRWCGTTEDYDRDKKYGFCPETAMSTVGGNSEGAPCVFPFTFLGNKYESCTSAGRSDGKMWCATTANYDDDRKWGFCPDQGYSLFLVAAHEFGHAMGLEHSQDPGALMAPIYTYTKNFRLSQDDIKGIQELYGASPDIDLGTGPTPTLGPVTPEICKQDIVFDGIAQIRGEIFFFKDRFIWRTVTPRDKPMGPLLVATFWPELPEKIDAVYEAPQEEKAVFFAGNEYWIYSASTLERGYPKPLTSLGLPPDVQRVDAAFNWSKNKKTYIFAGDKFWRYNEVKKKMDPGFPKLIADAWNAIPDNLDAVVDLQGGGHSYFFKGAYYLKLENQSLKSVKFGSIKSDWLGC
# MMP-9 [3] = conditions: at 37° C., pH 7.64; cited from earlier work
# Target sequence in this assay (P14780 94-707, species assumed): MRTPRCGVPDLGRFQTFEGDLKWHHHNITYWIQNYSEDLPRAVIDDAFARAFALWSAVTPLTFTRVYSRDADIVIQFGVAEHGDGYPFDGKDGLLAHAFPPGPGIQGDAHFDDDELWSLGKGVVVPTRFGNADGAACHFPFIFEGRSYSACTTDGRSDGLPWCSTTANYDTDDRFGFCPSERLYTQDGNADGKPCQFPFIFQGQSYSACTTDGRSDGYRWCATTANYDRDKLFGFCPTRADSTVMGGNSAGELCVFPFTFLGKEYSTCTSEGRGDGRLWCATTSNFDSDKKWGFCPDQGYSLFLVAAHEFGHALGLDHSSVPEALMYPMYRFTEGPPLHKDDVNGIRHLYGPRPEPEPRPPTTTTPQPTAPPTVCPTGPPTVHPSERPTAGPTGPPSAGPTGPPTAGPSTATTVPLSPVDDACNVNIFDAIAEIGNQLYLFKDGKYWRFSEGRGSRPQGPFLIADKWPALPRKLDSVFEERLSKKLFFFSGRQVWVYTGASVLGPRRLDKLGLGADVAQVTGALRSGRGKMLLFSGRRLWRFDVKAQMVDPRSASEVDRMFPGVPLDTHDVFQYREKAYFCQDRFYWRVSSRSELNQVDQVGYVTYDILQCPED
# MMP-3 = MMP-3 (Homo sapiens, UniProt P08254); conditions: at 37° C., pH 7.64; cited from earlier work
# MMP-1 = molecular target: T2, MMP-1 (Homo sapiens, UniProt P03956); conditions: at 37° C., pH 7.64; cited from earlier work
# T2 sequence (P03956 100-469): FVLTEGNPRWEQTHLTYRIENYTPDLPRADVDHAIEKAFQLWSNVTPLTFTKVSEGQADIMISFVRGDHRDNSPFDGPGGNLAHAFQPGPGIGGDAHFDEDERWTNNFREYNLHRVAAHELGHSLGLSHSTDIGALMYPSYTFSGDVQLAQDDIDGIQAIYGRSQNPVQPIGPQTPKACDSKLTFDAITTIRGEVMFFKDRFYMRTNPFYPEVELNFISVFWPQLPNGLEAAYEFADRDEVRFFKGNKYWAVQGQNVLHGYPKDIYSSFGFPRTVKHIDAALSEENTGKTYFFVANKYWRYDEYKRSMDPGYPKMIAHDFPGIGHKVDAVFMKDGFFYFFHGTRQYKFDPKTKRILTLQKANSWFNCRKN
# MMP-9 [4] = assay: 5-FAM FRET peptide assay with pure recombinant MMP-9; format: biochemical; conditions: pure MMP-9 activity near the threshold of Ladwig et al.
# Description: Peptide: Two vials of Anaspec, Inc.'s FRET peptide XV (1646.1 g/mol; 100 pg each; Sequence: QXL™520-y-Abu-Pro-Gln-Gly-Leu-Dab(5-FAM)-Ala-Lys-NH (SEQ ID NO:3)) were reconstituted with 60.7 pL of dimethyl sulfoxide (DMSO) to create a stock solution with a concentration of 1.0 mM. A 2× (50 pM) working solution was generated by diluting the 1.0 mM stock in MMP Assay Buffer 20-fold. Each reaction will be 20 pL at final volume requiring at least 0.5 pL of 1.0 mM stock, 9.5 pL of MMP assay buffer and 10 pL of sample per reaction.
# Matrix Metalloprotease 9 (aka Gelatinase B): Recombinant active pure MMP-9 from Calbiochem (Cat# PF024; 83 kDa form) in a concentration of 100 ng/mL was used to create 40 pL working solutions at 2× concentration (4× reactions per concentration).
# The protease was ˜30 pL of 10 pg/mL MMP-9 (86 kDa form). The substrate was ˜60 μL of 50 μCM 5-FAM/QXL520 FRET Peptide (Fluorescein based TNO211). So the final protease concentration is ˜3.33 μg/mL with ˜33.3 μM.
# After the plate-based validation, the leftover substrate and protease were used to test the system in a microcentrifuge tube. A signal visible with a handheld cyan led flashlight was present within 10 minutes. The signal was visible under normal lighting conditions, but the signal is enhanced with the lights out or with the tube shielded.
# Target sequence in this assay (P14780 107-707 limits assumed): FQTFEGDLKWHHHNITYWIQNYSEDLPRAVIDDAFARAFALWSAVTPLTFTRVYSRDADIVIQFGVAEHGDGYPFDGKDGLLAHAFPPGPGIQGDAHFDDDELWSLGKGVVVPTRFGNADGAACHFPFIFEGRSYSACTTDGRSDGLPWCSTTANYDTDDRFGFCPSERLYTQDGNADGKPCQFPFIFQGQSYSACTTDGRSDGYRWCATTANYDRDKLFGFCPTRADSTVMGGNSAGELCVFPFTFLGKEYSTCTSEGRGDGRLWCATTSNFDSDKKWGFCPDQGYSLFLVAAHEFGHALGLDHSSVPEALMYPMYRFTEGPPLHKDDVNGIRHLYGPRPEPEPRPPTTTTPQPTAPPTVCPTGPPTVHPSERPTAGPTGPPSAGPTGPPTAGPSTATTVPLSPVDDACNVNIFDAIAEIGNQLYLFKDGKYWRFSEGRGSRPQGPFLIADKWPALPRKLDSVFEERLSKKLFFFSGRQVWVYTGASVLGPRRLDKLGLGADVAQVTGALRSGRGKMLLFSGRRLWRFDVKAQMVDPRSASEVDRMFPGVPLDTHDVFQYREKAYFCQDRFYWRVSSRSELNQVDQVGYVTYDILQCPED
# Chain of MMP-3 (P08254 100-477, species assumed): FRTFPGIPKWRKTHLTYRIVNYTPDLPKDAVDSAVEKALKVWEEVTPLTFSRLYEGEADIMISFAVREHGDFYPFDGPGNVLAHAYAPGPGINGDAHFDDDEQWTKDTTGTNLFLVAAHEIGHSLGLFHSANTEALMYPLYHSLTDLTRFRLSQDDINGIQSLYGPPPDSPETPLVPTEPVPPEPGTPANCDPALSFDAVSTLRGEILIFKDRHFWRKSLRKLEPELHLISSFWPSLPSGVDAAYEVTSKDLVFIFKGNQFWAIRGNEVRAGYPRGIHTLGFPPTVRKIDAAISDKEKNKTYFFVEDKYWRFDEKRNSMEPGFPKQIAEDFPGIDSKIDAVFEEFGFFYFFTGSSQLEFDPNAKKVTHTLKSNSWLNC
substance,measurement,setting,value
Biotin-aAbu-Pro-Gln-Gly-Leu-Lys(5FAM)-Ala-Lys-NH2 [Peptide #15],cleavage kinetics,pronase,favorable kinetics
"MMP-9: Matrix Metalloprotease 9, protease assayed for cleavage of substrate TNO211",activity as % of pronase's observed activity,substrate TNO211 [1],28±3% and 28%
same,theoretical detection limit calculated from pronase limit,substrate TNO211 [2],~450 ng
DABCYL-GABA-Pro-Gln-Gly-Leu-Glu(EDANS)-Ala-Lys-NH2 ({DABCYL-GABA}-PQGLE(EDANS)AK-NH2) [TNO211],kcatKm,MMP-2,"619,000 M^−1s^−1"
same,kcatKm,MMP-9 [3],"206,000 M^−1s^−1"
same,kcatKm,MMP-3,"40,000 M^−1s^−1"
same,kcatKm,MMP-1,"21,000 M^−1s^−1"
QXL™520-y-Abu-Pro-Gln-Gly-Leu-Dab(5-FAM)-Ala-Lys-NH ({QXL520-GABA}-PQGL[Dab(5-FAM)]AK-NH2) [Anaspec XV],time to generate a signal,MMP-9 [4],≤ 10 min
collagenase,activity as % of pronase's observed activity,substrate TNO211 [1],2±1%
